System: moderately differentiated intrahepatic cholangiocarcinoma
Assay: Clinical case: treatment of a patient with metastatic intrahepatic cholangiocarcinoma, drugs chosen by Oncobox rating
Format: in vivo, human
Description: The patient was diagnosed in October 2015 with the following symptoms: moderate body weight loss, pain in right hypochondrium, loss of appetite and asthenia, with 70% Karnovsky index. […] The tumour was not surgically excised due to advanced stage, several intrahepatic masses and lung metastasis.
At first, total RNA was isolated from tumour sample and used to measure expression levels for 2,163 genes with CustomArray Inc. (USA) equipment using the microarray hybridization method. These 2,163 genes participate in major human signalling pathways associated with cancer, and also act as the molecular targets of anti-cancer medicinal products. Liver samples without pathological characteristics were taken from healthy donors and used as normal tissue controls. Using the Oncobox algorithm, the rating of target drugs was formed according to the BES values obtained (Table 2).

## CNC(=O)c1cc(Oc2ccc(NC(=O)Nc3ccc(Cl)c(C(F)(F)F)c3)cc2)ccn1 [Sorafenib]
Sorafenib from May 2016, MRI October 2016
  tumour status on MRI according to RECIST classification: stable disease
Sorafenib from May 2016, progressing tumour on MRI January 2017
  period till progression: about 6 months
After treatment with Sorafenib
  symptom change after treatment: pain elimination in right hypochondrium
Patient on Sorafenib
  adverse effects: reddening, edema, pains in palms of the hands and bottoms of the feet

Source: patent publication US11614434B2, “Genetic information analysis platform oncobox” (Obschestvo s ogranichennoi otvetstvennostyu “Oncobox”, priority 2018, dated 2023)
